From PubChem BioAssay (NCI)
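Interpolation was linear, between the two tested concentrations surrounding the appropriate level; five concentrations were tested over 48 hours in 96-well plates. GI50 is the concentration that inhibits growth by half. TGI: total growth inhibition.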

Legend:
Test in all cases: growth of human tumour cells (NCI), 48 h
[1] = tested on: RPMI-8226 leukemia
[2] = tested on: HS 578T breast
[3] = tested on: MALME-3M melanoma
[4] = tested on: M14 melanoma
[5] = tested on: NCI-H522 lung
[6] = tested on: ACHN renal
[7] = tested on: HT29 colon
[8] = tested on: HCT-116 colon
[9] = tested on: OVCAR-8 ovarian
[10] = tested on: RXF 393 renal

Structure (SMILES)	GI50 [1]	TGI [1]	GI50 [2]	TGI [2]	GI50 [3]	TGI [3]	GI50 [4]	TGI [4]	GI50 [5]	TGI [5]	GI50 [6]	TGI [6]	GI50 [7]	TGI [7]	GI50 [8]	TGI [8]	TGI [9]	TGI [10]	GI50 [9]	GI50 [10]
Cc1cc(C(=O)N2CCN(C)CC2)c2c(=O)n(-c3ccccc3)c(=O)n(CC(O)CN3CCN(c4ncccn4)CC3)c2n1 (centres undefined)	> 100 µM	> 100 µM	> 100 µM	> 100 µM	> 100000 nM	> 100 µM	> 100 µM	> 100 µM	> 100 µM	> 100 µM	> 100 µM	> 100 µM	> 100 µM	> 100 µM	> 100 µM	> 100 µM	–	–	–	–
CN(C)CCCNC(=O)c1cccc2nc3ccccc3nc12	–	> 100 µM	–	–	–	19.3 µM	–	> 53.3 µM	–	> 100 µM	–	> 100 µM	–	36.5 µM	–	34.7 µM	> 82.2 µM	34.6 µM	–	–
COc1cc(-c2nccc3[nH]c(-c4cccc5[nH]ccc45)nc23)cc(OC)c1OC	< 0.01 µM	2.91 µM	< 0.01 µM	23.9 µM	2710 nM	15.9 µM	< 0.01 µM	10.1 µM	–	–	< 0.01 µM	11.6 µM	< 0.01 µM	1.26 µM	< 0.01 µM	0.0202 µM	14.1 µM	–	< 0.01 µM	–
Nc1ncnc2c1nc(N)n2C1OC(CO)C(O)C1O (centres undefined)	0.973 µM	6.48 µM	2.45 µM	> 28.4 µM	–	–	0.11 µM	0.355 µM	0.809 µM	2.61 µM	0.348 µM	> 100 µM	0.0589 µM	1.31 µM	0.302 µM	10.5 µM	2.98 µM	3.36 µM	0.63 µM	1.45 µM
CC(C)(C)c1cc(Oc2ccc(C#N)c(C#N)c2)cc(C(C)(C)C)c1	–	> 100 µM	–	–	–	> 100 µM	–	> 100 µM	–	> 100 µM	–	> 100 µM	–	> 100 µM	–	> 100 µM	> 100 µM	> 100 µM	–	–
CS(=O)/C(C#N)=C\C=C\c1cccc(Cl)c1 (centres undefined)	2.44 µM	12 µM	13.1 µM	52.6 µM	–	–	2.57 µM	11.2 µM	1.96 µM	5.65 µM	2.78 µM	10.4 µM	3.26 µM	13.7 µM	1.12 µM	4.73 µM	17.9 µM	3.9 µM	3.78 µM	2 µM
CC(=O)NC1CCCN(O)C(=O)/C=C(/C)CCOC(=O)C(NC(C)=O)CCCN(O)C(=O)/C=C(/C)CCOC(=O)C(NC(C)=O)CCCN(O)C(=O)/C=C(/C)CCOC1=O.[Fe] (centres undefined)	> 100 µM	> 100 µM	> 100 µM	> 100 µM	–	–	> 100 µM	> 100 µM	> 100 µM	> 100 µM	> 100 µM	> 100 µM	> 100 µM	> 100 µM	> 100 µM	> 100 µM	> 100 µM	–	> 100 µM	–
C[N+](C)(C)CC(=O)N/N=C/c1oc(-c2cccc([N+](=O)[O-])c2)c(-c2cccc([N+](=O)[O-])c2)c1[N+](=O)[O-]	–	55.3 µM	–	–	–	> 100 µM	–	> 100 µM	–	> 100 µM	–	> 100 µM	–	> 100 µM	–	> 100 µM	> 100 µM	> 100 µM	–	–
COc1ccc(-c2nnc(Nc3nc(O)c(C4=c5cc(OC(F)(F)F)ccc5=NC4=O)s3)o2)cc1	14.2 µM	37.2 µM	38.3 µM	> 100 µM	–	–	8.76 µM	28.5 µM	32.4 µM	> 100 µM	22.3 µM	> 100 µM	71.4 µM	> 100 µM	12.5 µM	25.4 µM	99.5 µM	29.1 µM	22.7 µM	13.9 µM
Cc1ccc2nc3sc(=O)sc3nc2c1	–	59.1 µM	–	61.8 µM	–	–	–	33.5 µM	–	35.7 µM	–	28.5 µM	–	31.2 µM	–	30.9 µM	28.6 µM	67.8 µM	–	–
O=C1c2ccccc2-c2c1c1c(O)cccc1n2CCCc1ccccc1	13.7 µM	51.9 µM	41.7 µM	> 100 µM	–	–	> 100 µM	> 100 µM	3.85 µM	38.5 µM	14.1 µM	66.9 µM	42.8 µM	> 100 µM	5.91 µM	> 100 µM	> 100 µM	68.5 µM	31.7 µM	5.87 µM
CN=c1ss/c(=N\C(=S)N(C)C)n1C1CCCCC1	–	> 100 µM	–	–	–	> 31.6 µM	–	> 10 µM	–	> 31.6 µM	–	> 31.6 µM	–	> 31.6 µM	–	> 10 µM	> 31.6 µM	> 31.6 µM	–	–
CC1=C(C(=O)Nc2cccc(C(F)(F)F)c2)C(c2ccccc2F)C(C(=O)Nc2cccc(C(F)(F)F)c2)=C(C)N1	–	10.1 µM	–	–	–	21.8 µM	–	15.7 µM	–	17.5 µM	–	19 µM	–	11.5 µM	–	13.5 µM	28.2 µM	15.5 µM	–	–
